Measured values: PubChem BioAssay AID463203 (Broad Institute, 2010)
Active and inactive are the calls of the source.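 The calls were made as follows: active = more than half of replicate measurements showing over 20% loss of kinase signal relative to plate controls; inconclusive = some but at most half of replicates over 20% loss; inactive = no replicate over 20% signal loss.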

Target: Glycogen synthase kinase-3 alpha (Homo sapiens) (UniProt P49840)
Test: concentration-response blocking of human GSK3A – biochemical, luminescence, cell-free homogeneous, retest, dose response (AID 463203)
Settings: GSK-3 alpha enzyme, ADP-Glo luminescence, 60 min

Chain of Glycogen synthase kinase-3 alpha (Homo sapiens) (P49840 whole entry, looked up): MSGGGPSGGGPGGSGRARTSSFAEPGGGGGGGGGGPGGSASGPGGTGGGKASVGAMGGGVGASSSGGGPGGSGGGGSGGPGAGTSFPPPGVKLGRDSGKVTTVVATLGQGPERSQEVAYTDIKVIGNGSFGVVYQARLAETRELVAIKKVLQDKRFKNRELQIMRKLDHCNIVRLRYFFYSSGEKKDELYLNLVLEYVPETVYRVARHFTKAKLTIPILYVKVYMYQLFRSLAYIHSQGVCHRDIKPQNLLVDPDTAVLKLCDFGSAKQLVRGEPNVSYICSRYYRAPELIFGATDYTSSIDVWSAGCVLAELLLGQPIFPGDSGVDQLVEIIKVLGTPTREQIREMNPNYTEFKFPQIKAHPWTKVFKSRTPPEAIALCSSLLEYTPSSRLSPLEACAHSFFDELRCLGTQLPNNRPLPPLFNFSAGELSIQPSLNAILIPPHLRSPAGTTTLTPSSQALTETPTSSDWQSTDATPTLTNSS

Structure (SMILES)	AC50
COC(=O)c1ccc(CSc2ccc3nnc(-c4ccc(OC)cc4)n3n2)o1	17.1 µM
Cc1ccc(CSc2ccc3nnc(-c4cccnc4)n3n2)cc1	> 30 µM (inactive)
COc1cccc(NC(=O)c2cnc[nH]2)c1	> 30 µM (inactive)
O=C(CN1CCOCC1)Nc1cccc(Br)c1	> 30 µM (inactive)
N#CC1=C(SCc2ccccc2)NC(=O)CC1c1ccco1 (configuration not stated)	> 30 µM (inactive)
CCOC(=O)N1CCN(C(=O)CSc2ccc3nnc(-c4ccccn4)n3n2)CC1	> 30 µM (inactive)
COc1cccc(C2CC(=O)N3CN(c4ccccc4F)CSC3=C2C#N)c1 (configuration not stated)	> 30 µM (inactive)
COc1ccc(OC)c(/C=C2\S/C(=N/NC(=O)c3ccc4ccccc4c3)NC2=O)c1	> 30 µM (inactive)
CCNc1ccc2noc3c2c1C(=O)c1ccccc1-3	10.8 µM
COc1ccc2nc(NC(=O)CSc3cn[nH]n3)sc2c1	9.56 µM
CC(C)(C)OC(=O)N1CCC(NC(=O)c2[nH]cnc2C(=O)Nc2ccc(Cl)cc2)CC1	> 30 µM (inactive)
CCc1c(C)c(C#N)c2nc3ccccc3n2c1NCc1ccccn1	16.8 µM
COc1cccc2c1C(=O)O/C2=C/c1ccc2c(c1)OCO2	> 30 µM (inactive)
CCOC(=O)c1nnn(-c2nonc2N)c1-c1cccc2ccccc12	27.9 µM
CS(=O)(=O)N1CCN(c2ccc(NC(=O)c3ccc(Br)o3)cc2)CC1	> 30 µM (inactive)
O=c1ccc(-c2nc3ccccc3n2Cc2ccc(Cl)cc2)c[nH]1	> 30 µM (inactive)
Cc1ccc(C)c(N2CC(C(=O)Nc3nccs3)CC2=O)c1 (configuration not stated)	> 30 µM (inactive)
CC(C)CC(=O)NC(=S)Nc1sc2c(c1C(N)=O)CCC2	> 30 µM (inactive)
CCOC(=O)c1c(NC(=O)Cc2cccs2)sc2c1CCCC2	> 30 µM (inactive)
COC(=O)c1cc(O)c(OCc2ccccc2)c(O)c1	> 30 µM (inactive)
NC(=O)c1cc([N+](=O)[O-])c(Cl)cc1NCc1cccnc1	4.43 µM
Nc1ncc([N+](=O)[O-])s1	> 30 µM (inactive)
CC(CC(=O)Nc1ncc([N+](=O)[O-])s1)c1ccccc1 (configuration not stated)	5.94 µM
O=C(NCCN1CCc2ccccc2C1)Nc1ccc(F)cc1	> 30 µM (inactive)
O=c1[nH]ncc(N/N=C\c2ccncc2)c1Cl	25.4 µM
Cc1ccc(-c2nnc(N3CCN(C(=O)COc4cccc(C)c4)CC3)c3ccccc23)cc1	> 30 µM (inactive)

Structure (SMILES)	AC50
CCOC(=O)c1[nH]c2c(c1-c1ccccc1)C(=O)CC(c1ccccc1)C2 (configuration not stated)	> 30 µM (inactive)
COc1ccc(NC(=O)c2nnn(Cc3cccc(F)c3)c2N)c(OC)c1	> 30 µM (inactive)
Cc1c(C(=O)N2CCOCC2)oc2ccc(S(=O)(=O)N3CCCC3)cc12	> 30 µM (inactive)
O=C(O)CCNc1ccc(NCCC(=O)O)c2c1C(=O)c1ccccc1C2=O	22.7 µM
Cc1ccc(S(=O)(=O)N2CCN(C(=O)n3ccnc3)CC2)cc1	> 30 µM (inactive)
CCc1ccc(C2CC(c3ccc(Cl)cc3)n3nc(N)nc3N2)cc1 (configuration not stated)	> 30 µM (inactive)
COc1ccc(S(=O)(=O)Nc2c(C(=O)O)[nH]c3ccc(OC)cc23)cc1	30.7 µM
CCN1CCN(CC(=O)Nc2nc3ccc(OC)cc3s2)CC1	> 30 µM (inactive)
COc1ccc(C(=O)c2cc(C(C)=O)c(Nc3ccccc3)s2)cc1	> 30 µM (inactive)
CC(C(=O)Nc1nccs1)c1ccc([N+](=O)[O-])cc1 (configuration not stated)	20.5 µM
CC1=CC(=C2C(=O)c3ccccc3C2=O)C=C(C)N1Cc1ccco1	> 30 µM (inactive)
Fc1ccc(Nc2ccnc(Nc3ccc(F)cc3)n2)cc1	> 30 µM (inactive)
COc1ccc(CNc2cc(NCCCO)c([N+](=O)[O-])c3nonc23)cc1	13.3 µM
CC(=O)Nc1ccc(C2(c3ccc(NC(C)=O)cc3)NC(=O)c3ccccc32)cc1	> 30 µM (inactive)
COc1ccc(-c2ncncc2-c2ccccc2)c(O)c1	13.2 µM
Cc1nccnc1Sc1ccccc1	> 30 µM (inactive)
COc1ccc(NC(=O)c2ccc(NCC3CCCO3)c([N+](=O)[O-])c2)cc1 (configuration not stated)	> 30 µM (inactive)
COc1ccc(NC(=O)c2c(Nc3ccccc3)sc(C(=O)c3ccc(F)cc3)c2N)cc1	> 30 µM (inactive)
NC1=NC(=O)/C(=C/c2cccs2)S1	> 30 µM (inactive)
CC(C)c1ccc(NC(=O)CSc2n[nH]c(=O)n2-c2ccc3c(c2)OCCO3)cc1	> 30 µM (inactive)
Cc1ccc(-c2nnc3n2N=C(c2ccc(Br)cc2)CS3)cc1	> 30 µM (inactive)
Cc1cccc(C)c1OC(=O)Cc1ccccc1	> 30 µM (inactive)
CCOC(=O)c1nnn(-c2ccc(OC)cc2)c1N	> 30 µM (inactive)
O=C(N/N=C/c1ccccn1)c1cccc(NC(=O)c2ccccc2Cl)c1	15.9 µM
CCn1c(SCC(=O)Nc2ccc(C)cc2)nnc1-c1ccc(O)cc1	> 30 µM (inactive)
Cc1cc(OC(=O)c2c(C)cc(O)cc2O)cc(O)c1C(=O)O	27.8 µM

Structure (SMILES)	AC50
Cc1c(C(=O)OCCOC(C)C)[nH]c2c1C(=O)CC(C)(C)C2	25.4 µM
COc1cc2c(C#N)c(N3CCCCC3)nc(N)c2c(N)n1	13.4 µM
Cc1csc(NC(=O)c2ccc3c(c2)OCO3)n1	> 30 µM (inactive)
CCCN(CCC)Cc1c(C(=O)N/N=C/C(C)=C\c2ccco2)nnn1-c1nonc1N	> 30 µM (inactive)
COc1cc(/C=N/Nc2nc(=O)[nH]nc2C)cc([N+](=O)[O-])c1O	22.1 µM
O=C(c1ccco1)c1cn(CC(=O)N2CCCCC2)c2ccccc12	> 30 µM (inactive)
COCCCNC(=O)C(=O)NC1CCCCC1C (configuration not stated)	> 30 µM (inactive)
CC1=C(C(=O)OC(C)C)C(c2cccc(F)c2)n2ncnc2N1 (configuration not stated)	> 30 µM (inactive)
O=C(Nc1cccc(-c2cnc3ccccc3n2)c1)c1cccc(NC(=O)c2ccco2)c1	> 30 µM (inactive)
COc1ccccc1NC(=O)CCSc1nnc(-c2ccc(O)cc2)o1	8.24 µM
CC(C)=CCc1c(O)cc(O)c2c(=O)c(O[C@@H]3O[C@@H](C)[C@H](O)[C@@H](O)[C@H]3O)c(-c3ccc(O)cc3)oc12	19.6 µM
CCOc1ccc(-c2nnc(N)s2)cc1	> 30 µM (inactive)
CCOC(=O)c1c(NC(=O)CN2C(=O)NC3(CCCCC3C)C2=O)sc(C(=O)N(C)C)c1C (configuration not stated)	> 30 µM (inactive)
CCCCN(CCCC)c1cn[nH]c(=O)c1Cl	11.2 µM
COC(=O)c1cn(C(=O)c2ccccc2F)nc1N	> 30 µM (inactive)
Clc1ccccc1C1=Nn2c(nnc2-c2ccco2)SC1	30.4 µM
O=C(CSc1nnc(-c2ccc(O)cc2)o1)Nc1ccccc1	16.3 µM
O=C1Nc2ccccc2/C1=C/c1cnc(-c2ccccc2)[nH]1	> 30 µM (inactive)
O=C1c2cnc3nc(SCc4cccc(Cl)c4)nn3c2CC2c3ccccc3CCN12 (configuration not stated)	> 30 µM (inactive)
COC(=O)c1ccc(CSc2nnc(-c3ccncc3)n2Cc2ccccc2)o1	> 30 µM (inactive)
Cc1nc(NCC2CCCO2)nc2c1C(=O)CC(C)(C)C2 (configuration not stated)	> 30 µM (inactive)
O=C(CCSc1nc(-c2ccco2)cc(C(F)(F)F)n1)NCc1cccs1	> 30 µM (inactive)
Cc1[nH]c2ccccc2c1N=Nc1cccc(C(=O)O)c1	> 30 µM (inactive)
CCCc1cc(C(N)=O)c(NC(C)=O)s1	30.8 µM
O=C(Nc1cccc(Cl)c1N1CCOCC1)c1ccc(Br)o1	> 30 µM (inactive)
